Entries after “also recorded” stand apart in the source; their conditions may differ. Read-outs that look alike come from different tables or passages of the source. Blank lines part the entries; values can stand above or below the molecule they belong to.
Experiments:
BTK [1] = target: T1, BTK (Homo sapiens, UniProt Q06187); experiment: Chemiluminescence emission of probe 3l with BTK; conditions: 2 μM probe, 2 μM BTK
BTK [2] = target: T1, BTK; experiment: HTS with the chemiluminescent probe 3l (%BTK binding inhibition); conditions: 10 μM compound, 0.75 μM BTK
BTK [3] = target: T1, BTK; experiment: biochemical; conditions: read-out: BTK inhibition (%), 0.75 uM BTK, […] probe 3l, 15 min preincubation
primary mouse B cells = experiment: B-cell response experiment (anti-IgM activation, CD86 by flow cytometry); assay type: cell-based; conditions: representative FACS plot, concentration not given
wild-type BTK = wild-type BTK (Homo sapiens, UniProt Q06187); experiment: In vitro kinase activity assay (Nanosyn)
BTK kinase domain = BTK kinase domain (Homo sapiens, UniProt Q06187); experiment: Kinetic labeling of BTK by intact protein LC/MS; assay type: binding
BLK = BLK (Homo sapiens, UniProt P51451); experiment: In vitro kinase activity assay (Nanosyn)
ITK = target: T2, ITK (Homo sapiens, UniProt Q08881); experiment: In vitro kinase activity assay (Nanosyn)
T2 sequence (Q08881 1-620): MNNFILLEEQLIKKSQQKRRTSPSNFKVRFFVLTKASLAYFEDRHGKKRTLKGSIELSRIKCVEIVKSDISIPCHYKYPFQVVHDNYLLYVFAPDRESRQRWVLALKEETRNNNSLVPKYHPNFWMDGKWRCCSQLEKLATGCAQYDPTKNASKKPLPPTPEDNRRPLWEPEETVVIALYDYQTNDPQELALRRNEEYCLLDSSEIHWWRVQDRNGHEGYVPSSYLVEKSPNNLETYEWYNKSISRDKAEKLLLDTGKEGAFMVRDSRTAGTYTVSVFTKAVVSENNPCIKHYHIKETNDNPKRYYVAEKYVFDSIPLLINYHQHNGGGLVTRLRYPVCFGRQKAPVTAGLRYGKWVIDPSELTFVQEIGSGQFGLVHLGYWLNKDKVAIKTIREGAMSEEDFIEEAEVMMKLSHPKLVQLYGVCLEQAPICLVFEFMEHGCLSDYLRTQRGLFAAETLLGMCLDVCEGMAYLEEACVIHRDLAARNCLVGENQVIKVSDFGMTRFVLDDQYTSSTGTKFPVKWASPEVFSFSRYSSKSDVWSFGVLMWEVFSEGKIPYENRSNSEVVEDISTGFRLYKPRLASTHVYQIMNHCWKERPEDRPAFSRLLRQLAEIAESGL

BMX = target: T3, BMX (Homo sapiens, UniProt P51813); experiment: In vitro kinase activity assay (Nanosyn)
T3 sequence (P51813 1-675): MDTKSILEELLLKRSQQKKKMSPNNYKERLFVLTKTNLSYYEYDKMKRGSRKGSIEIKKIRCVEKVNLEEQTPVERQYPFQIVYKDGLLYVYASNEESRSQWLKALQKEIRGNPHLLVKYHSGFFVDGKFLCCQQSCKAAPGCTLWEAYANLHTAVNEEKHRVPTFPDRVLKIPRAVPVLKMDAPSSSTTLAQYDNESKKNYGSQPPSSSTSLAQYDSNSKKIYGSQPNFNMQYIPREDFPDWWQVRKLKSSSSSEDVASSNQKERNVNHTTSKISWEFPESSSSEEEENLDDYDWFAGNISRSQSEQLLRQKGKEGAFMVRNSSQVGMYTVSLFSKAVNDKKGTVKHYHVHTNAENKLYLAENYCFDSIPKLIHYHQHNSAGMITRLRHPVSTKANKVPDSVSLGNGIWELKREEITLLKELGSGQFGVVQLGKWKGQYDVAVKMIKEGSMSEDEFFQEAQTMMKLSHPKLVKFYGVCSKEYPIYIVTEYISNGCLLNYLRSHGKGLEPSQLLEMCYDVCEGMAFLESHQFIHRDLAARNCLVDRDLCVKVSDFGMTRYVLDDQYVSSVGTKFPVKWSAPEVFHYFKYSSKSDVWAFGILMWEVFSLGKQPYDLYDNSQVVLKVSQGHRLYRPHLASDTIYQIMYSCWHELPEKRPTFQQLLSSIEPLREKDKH

EGFR [4] = target: T4, EGFR (Homo sapiens, UniProt P00533); experiment: In vitro kinase activity assay (Nanosyn); assay type: biochemical; conditions: for IC50: 5 μM ATP
Target sequence in this assay (P00533 25-1210): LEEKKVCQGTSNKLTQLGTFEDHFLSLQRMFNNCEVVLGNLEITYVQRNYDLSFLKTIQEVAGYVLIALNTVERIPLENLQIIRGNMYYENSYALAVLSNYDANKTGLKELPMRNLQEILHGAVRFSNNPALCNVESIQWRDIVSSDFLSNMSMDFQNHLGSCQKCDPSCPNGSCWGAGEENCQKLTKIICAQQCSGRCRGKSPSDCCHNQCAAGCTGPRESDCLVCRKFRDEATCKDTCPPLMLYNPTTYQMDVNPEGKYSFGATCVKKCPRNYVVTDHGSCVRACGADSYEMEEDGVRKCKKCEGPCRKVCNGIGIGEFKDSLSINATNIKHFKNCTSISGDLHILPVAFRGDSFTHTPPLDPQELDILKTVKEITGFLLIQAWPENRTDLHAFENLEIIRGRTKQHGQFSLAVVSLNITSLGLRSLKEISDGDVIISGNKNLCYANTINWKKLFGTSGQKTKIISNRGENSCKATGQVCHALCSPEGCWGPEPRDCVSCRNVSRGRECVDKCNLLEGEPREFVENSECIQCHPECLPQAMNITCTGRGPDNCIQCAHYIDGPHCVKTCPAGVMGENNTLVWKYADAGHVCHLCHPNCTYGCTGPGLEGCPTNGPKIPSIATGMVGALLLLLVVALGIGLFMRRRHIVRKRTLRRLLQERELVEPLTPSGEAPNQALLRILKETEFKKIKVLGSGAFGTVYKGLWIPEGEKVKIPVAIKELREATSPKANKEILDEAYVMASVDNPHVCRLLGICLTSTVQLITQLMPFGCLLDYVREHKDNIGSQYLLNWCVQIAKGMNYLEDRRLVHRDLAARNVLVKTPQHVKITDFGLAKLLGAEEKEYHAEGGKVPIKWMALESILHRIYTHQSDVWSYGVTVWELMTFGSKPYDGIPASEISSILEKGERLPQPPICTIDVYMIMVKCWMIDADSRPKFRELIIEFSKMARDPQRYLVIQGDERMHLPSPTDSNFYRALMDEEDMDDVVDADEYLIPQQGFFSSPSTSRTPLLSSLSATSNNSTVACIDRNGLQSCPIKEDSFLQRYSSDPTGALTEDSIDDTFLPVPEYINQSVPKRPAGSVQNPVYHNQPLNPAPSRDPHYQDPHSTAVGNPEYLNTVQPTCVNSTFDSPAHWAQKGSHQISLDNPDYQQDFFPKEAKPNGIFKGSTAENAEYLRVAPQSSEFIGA

ERBB2 = ERBB2 (Homo sapiens, UniProt P04626); experiment: In vitro kinase activity assay (Nanosyn)
EGFR [5] = target: T4, EGFR; experiment: Fluorescence intensity measurement of CoLDR turn-on probe; assay type: binding; design: EGFR kinase domain was a generous gift from Prof; Michael Eck; gift from Prof; conditions: 2 μM probe, 2 μM protein
Experimental: (§1) A 2 μM concentration of BTK, EGFR, or K-RAS^G12C was added to 2 μM 3k, 4b, or 5a, respectively. […] Each condition was done in triplicates in 20 mM Tris pH 8.0 and 50 mM NaCl for BTK and K-RAS^G12C and in 50 mM Tris pH 8.0 and 100 mM NaCl for EGFR at 32 °C. Fluorescent measurements were taken every 2 min for 2 h for BTK and EGFR and every 10 min for 15 h for K-RAS^G12C. At the end of the measurements, samples were injected directly into the LC/MS for labeling quantification. K-Ras^G12C was expressed and purified as previously described,[69] EGFR kinase domain was a generous gift from Prof. Michael Eck.
Target sequence in this assay (P00533 712-979 limits assumed): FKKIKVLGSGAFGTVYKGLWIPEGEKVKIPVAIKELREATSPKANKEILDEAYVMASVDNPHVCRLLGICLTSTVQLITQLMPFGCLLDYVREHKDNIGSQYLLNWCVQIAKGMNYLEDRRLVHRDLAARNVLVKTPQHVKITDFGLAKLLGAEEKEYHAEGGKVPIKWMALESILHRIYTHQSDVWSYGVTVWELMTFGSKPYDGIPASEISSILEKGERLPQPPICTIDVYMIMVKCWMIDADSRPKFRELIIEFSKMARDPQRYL

[6] = GSH reactivity assay for ibrutinib derivatives (LC/MS); assay type: physicochemical; conditions: 5 mM GSH in phosphate buffer/DMF 9:1, 100 μM compound, buffer pH 8.0:DMF 9:1, 37 °C
BSA = BSA (Bos taurus, UniProt P02769); experiment: Turn-on fluorescence selectivity control with BSA; assay type: binding; conditions: 10 μM BSA with 2 μM 3k
Excerpt: The fact that a specific leaving group is released as a function of selective binding of a target protein can be used to functionalize irreversible inhibitors, for example as turn-on fluorescent probes. To assess the applicability and generality of this approach, we chose three therapeutic targets for which acrylamide inhibitors are available: BTK, EGFR, and K-RAS^G12C as model systems. Initially, we treated 3k (Figure 6A) with BTK, measured the released coumarin fluorescence, and validated the labeling via LC/MS (Figure 6B,C). […] We could also […] the rate of the reaction by using 20:1 equiv of protein:probe (Figure S16). […] The release can also be inhibited by preincubation of BTK with iodoacetamide alkyne (IAA; Figure S17B).
Figure S17. […] A. 10 μM BSA with 2
B. 2 μM BTK fully labeled with IAA (red) compared to 2 μM non labeled BTK (blue) with 2 μM 3k. The lack of signal for the labeled BTK indicated the fluorescence is triggered by a free cysteine.
(1 picture or pasted object on this page, not shown here)

BTK [7] = target: T1, BTK; experiment: Fluorescence intensity measurement of CoLDR turn-on probe; assay type: binding; conditions: 2 μM probe, 2 μM BTK
K-Ras^G12C = K-Ras^G12C (Homo sapiens, UniProt P01116, G12C); experiment: as above; assay type: binding; conditions: 2 μM probe, 2 μM protein
Experimental: as §1

[8] = BTK IC50, in vitro kinase activity assay
[9] = BTK IC50, rounded, 2 h preincubation, 5 μM ATP

Sequence of BLK (P51451 whole entry, species assumed): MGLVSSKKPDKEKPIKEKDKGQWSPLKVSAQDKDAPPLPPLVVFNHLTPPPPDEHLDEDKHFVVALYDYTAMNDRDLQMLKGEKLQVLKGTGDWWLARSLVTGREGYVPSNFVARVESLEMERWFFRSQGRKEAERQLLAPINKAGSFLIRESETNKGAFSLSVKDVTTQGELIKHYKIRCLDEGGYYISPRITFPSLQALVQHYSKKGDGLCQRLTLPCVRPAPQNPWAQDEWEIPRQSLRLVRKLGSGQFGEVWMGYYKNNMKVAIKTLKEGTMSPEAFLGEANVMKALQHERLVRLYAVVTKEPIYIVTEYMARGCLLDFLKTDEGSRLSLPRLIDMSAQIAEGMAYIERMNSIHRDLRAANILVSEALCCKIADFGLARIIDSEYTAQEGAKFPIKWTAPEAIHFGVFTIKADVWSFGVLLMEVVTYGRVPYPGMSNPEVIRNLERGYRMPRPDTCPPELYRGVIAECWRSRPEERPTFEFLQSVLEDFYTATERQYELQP
T1 sequence (Q06187 402-655 limits assumed): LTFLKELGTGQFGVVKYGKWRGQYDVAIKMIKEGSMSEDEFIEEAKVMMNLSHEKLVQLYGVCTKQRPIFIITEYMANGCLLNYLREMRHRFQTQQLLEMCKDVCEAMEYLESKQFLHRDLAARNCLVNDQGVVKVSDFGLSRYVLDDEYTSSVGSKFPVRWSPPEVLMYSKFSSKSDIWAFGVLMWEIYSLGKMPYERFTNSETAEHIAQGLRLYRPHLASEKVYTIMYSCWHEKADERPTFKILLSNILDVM
Sequence of wild-type BTK (Q06187 whole entry, the tested form may be a part): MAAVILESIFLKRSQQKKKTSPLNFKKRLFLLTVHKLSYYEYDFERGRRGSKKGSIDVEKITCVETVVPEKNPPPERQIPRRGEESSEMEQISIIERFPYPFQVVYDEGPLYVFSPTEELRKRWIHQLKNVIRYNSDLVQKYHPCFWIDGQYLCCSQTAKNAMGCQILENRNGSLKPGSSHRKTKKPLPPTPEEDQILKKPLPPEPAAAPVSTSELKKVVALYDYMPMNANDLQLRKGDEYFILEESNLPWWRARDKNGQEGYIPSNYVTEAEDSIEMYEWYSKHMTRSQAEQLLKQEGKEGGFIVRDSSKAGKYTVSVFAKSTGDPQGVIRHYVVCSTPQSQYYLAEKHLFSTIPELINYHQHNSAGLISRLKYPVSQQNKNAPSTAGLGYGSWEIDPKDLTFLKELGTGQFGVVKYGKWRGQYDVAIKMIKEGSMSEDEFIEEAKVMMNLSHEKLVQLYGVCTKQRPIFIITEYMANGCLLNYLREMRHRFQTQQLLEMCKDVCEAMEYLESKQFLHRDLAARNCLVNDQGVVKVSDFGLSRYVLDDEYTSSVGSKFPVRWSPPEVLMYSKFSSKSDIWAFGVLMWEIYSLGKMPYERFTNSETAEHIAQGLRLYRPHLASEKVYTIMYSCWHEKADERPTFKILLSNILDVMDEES
Sequence of ERBB2 (P04626 23-1255, species assumed): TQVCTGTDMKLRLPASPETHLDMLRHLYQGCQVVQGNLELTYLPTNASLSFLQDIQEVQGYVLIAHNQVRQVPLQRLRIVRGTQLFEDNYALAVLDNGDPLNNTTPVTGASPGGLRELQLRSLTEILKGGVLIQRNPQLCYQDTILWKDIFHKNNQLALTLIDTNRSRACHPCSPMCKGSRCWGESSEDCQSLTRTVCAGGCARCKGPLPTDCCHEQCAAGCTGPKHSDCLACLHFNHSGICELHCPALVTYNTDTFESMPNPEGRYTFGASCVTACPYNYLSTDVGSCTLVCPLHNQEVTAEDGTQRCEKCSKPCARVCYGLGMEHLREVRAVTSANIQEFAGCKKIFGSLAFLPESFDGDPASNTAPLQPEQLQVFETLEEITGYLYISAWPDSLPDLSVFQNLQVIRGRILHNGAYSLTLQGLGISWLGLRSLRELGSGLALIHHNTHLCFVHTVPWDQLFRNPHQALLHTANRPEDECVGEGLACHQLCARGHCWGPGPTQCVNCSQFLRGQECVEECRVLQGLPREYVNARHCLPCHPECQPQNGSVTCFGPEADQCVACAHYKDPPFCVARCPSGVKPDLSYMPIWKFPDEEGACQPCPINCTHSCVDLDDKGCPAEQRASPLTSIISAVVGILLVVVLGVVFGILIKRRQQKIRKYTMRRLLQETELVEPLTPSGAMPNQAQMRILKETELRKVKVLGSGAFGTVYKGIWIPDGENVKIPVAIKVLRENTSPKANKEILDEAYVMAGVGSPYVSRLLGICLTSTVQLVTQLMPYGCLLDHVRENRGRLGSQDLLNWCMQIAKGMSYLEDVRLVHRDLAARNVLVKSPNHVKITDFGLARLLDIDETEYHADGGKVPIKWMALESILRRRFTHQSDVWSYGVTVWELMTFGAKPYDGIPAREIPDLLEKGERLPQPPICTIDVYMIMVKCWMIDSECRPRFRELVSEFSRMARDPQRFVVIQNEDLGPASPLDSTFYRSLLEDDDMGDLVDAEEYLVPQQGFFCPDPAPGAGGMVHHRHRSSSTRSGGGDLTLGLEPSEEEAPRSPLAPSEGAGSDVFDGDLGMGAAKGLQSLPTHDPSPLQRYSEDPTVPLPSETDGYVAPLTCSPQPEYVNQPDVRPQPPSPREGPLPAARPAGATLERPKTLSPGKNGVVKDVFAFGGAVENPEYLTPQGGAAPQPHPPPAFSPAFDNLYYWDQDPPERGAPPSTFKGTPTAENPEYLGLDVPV
Sequence of BTK kinase domain (Q06187 402-655 limits assumed): as the sequence (Q06187 402-655 limits assumed) above
Sequence of BSA (P02769 25-607): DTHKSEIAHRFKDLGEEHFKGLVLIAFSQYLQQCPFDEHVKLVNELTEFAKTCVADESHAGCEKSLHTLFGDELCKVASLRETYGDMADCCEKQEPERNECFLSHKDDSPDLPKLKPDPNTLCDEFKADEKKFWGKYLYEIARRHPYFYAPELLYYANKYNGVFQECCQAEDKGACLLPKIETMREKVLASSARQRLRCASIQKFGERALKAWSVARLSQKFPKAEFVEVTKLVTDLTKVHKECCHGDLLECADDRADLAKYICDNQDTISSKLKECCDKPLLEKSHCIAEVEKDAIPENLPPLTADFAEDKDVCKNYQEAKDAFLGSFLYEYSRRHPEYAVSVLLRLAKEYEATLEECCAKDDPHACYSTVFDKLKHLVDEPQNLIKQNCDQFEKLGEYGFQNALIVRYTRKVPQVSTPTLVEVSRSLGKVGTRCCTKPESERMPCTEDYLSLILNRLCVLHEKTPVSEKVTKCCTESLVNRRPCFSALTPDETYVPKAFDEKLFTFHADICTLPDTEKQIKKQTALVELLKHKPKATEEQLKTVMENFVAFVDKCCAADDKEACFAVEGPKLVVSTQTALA

Compound: C=C(COc1c(/C=C/C(=O)OC)ccc(C2(OC)OOC23C2CC4CC(C2)CC3C4)c1Cl)C(=O)N1CCC[C@@H](n2nc(-c3ccc(Oc4ccccc4)cc3)c3c(N)ncnc32)C1 (stereo partly drawn) [3l]
chemiluminescence enhancement by BTK (total photon counts vs probe alone) (BTK [1]): 90 fold | time to maximum chemiluminescence signal (BTK [1]): ≤ 20 min

Compound: C=C(CN1CCCCC1)C(=O)N1CCC[C@@H](n2nc(-c3ccc(Oc4ccccc4)cc3)c3c(N)ncnc32)C1 [3c]
B220+ cells-activated (CD86 positive) (primary mouse B cells): 81.6% | IC50 (wild-type BTK; [8]): < 0.1 nM | IC50 (wild-type BTK; [9]): 0.1 nM | BTK labeling mechanism (BTK kinase domain): exclusively through addition with no substitution product | IC50 (BLK): 0.1 nM | IC50 (ITK): 43 nM | IC50 (BMX): 0.3 nM | IC50 (EGFR [4]; rounded, 2 h preincubation): 7 nM | IC50 (ERBB2): 33 nM

Compound: C=C(COc1ccc2ccc(=O)oc2c1)C(=O)Nc1cc2c(Nc3ccc(F)c(Cl)c3)ncnc2cc1OC [4b]
released coumarin fluorescence with EGFR (EGFR [5]): significant increase in fluorescence intensity | IC50 (EGFR [4]; EGFR kinase activity assay, 0.75 nM EGFR): 3.3 nM

Compound: C=C(CN(C)c1ccccc1)C(=O)N1CCC[C@@H](n2nc(-c3ccc(Oc4ccccc4)cc3)c3c(N)ncnc32)C1 [3d]
IC50 (wild-type BTK): 5.6 nM | half-life at 100 μM [6]: > 100 h

Compound: C=C(COc1ccc2ccc(=O)oc2c1)C(=O)N1CCC[C@@H](n2nc(-c3ccc(Oc4ccccc4)cc3)c3c(N)ncnc32)C1 [3k]
IC50 (wild-type BTK; BTK IC50, 0.6 nM BTK, 5 μM ATP, Figure 4C): 1 nM | turn-on fluorescence with BSA (BSA): no reaction; also recorded: does not result in increased fluorescence | increase of fluorescence intensity at 435 nm upon addition of BTK (BTK [7]): 30 fold | time to saturation of fluorescence (BTK [7]): ≤ 10 min

Compound: C=C(COc1ccc2ccc(=O)oc2c1)C(=O)N1CCN(c2nc(=O)n(-c3c(C)ccnc3C(C)C)c3nc(-c4c(O)cccc4F)c(F)cc23)[C@@H](C)C1 [5a]
released coumarin fluorescence with K-RAS^G12C (K-Ras^G12C): significant increase in fluorescence intensity

Compound: C=C(CNCc1ccccc1)C(=O)N1CCC[C@@H](n2nc(-c3ccc(Oc4ccccc4)cc3)c3c(N)ncnc32)C1 [3e]
B220+ cells-activated (CD86 positive) (primary mouse B cells): 77.3% | IC50 (wild-type BTK; [8]): < 0.1 nM | IC50 (wild-type BTK; [9]): 0.1 nM | BTK labeling mechanism (BTK kinase domain): exclusively through addition with no substitution product | IC50 (BLK): 0.1 nM | BLK/BTK (BLK; selectivity ratio of IC50): 1 | IC50 (ITK): 30 nM | ITK/BTK (ITK; selectivity ratio of IC50): 383 | IC50 (BMX): 0.4 nM | BMX/BTK (BMX; selectivity ratio of IC50): 5 | IC50 (EGFR [4]; rounded, 2 h preincubation): 3 nM | EGFR/BTK (EGFR [4]; selectivity ratio of IC50): 36 | half-life at 100 μM [6]: > 100 h | IC50 (ERBB2): 13 nM | ERBB2/BTK (ERBB2; selectivity ratio of IC50): 169

More lines, now with the values ahead:

BTK inhibition (%) (BTK [2]): 125.3% | inhibition at 10 µM (BTK [3]): 125%
Compound: Cc1cc(-c2ccc(N=Nc3ccc4c(S(=O)(=O)O)cc(S(=O)(=O)O)c(N)c4c3O)c(C)c2)ccc1N=Nc1ccc2c(S(=O)(=O)O)cc(S(=O)(=O)O)c(N)c2c1O [PCM-0214845]

BTK inhibition (%) (BTK [2]): 133.1% | inhibition at 10 µM (BTK [3]): 133%
Compound: COc1c/c(=C2\C=c3ccccc3=N2)[nH]/c1=C\c1[nH]c(C)cc1C [PCM-0094986]

Source: paper PMC8041284, “Tunable Methacrylamides for Covalent Ligand Directed Release Chemistry” (Journal of the American Chemical Society, 2021)
